Measured values: ChEMBL document CHEMBL3351929, “Halenaquinone inhibits RANKL-induced osteoclastogenesis” (Bioorg Med Chem Lett, 2014)
pIC50: −log10 of the molar value. Activity calls are given as the source filed them. The calls are words filed in the database; no cut-off is given here.

Experiments:
RAW264 [1] = experiment: Inhibition of sRANKL-induced TRAP activity in mouse RAW264 cells at 20 uM by p-nitrophenolate release based TRAP assay; type: functional, cell-based
[2] = Inhibition of chymotrypsin-like activity of proteasome in rat liver using Suc-Leu-Leu-Val-Tyr-MCA fluorogenic substrate
[3] = Inhibition of sRANKL-induced TRAP activity in mouse RAW264 cells by p-nitrophenolate release based TRAP assay; type: functional, cell-based; conditions: RAW264.7
Mus musculus [4] = species on record: Mus musculus; experiment: Inhibition of sRANKL-induced […] degradation in mouse RAW264 cells at 10 to 50 uM pre-treated for 2 hrs before sRANKL stimulation measured 15 mins after sRANKL stimulation by Western blotting method; type: cell-based
Mus musculus [5] = species on record: Mus musculus; experiment: Inhibition of sRANKL-induced AKT phosphorylation in mouse RAW264 cells at 20 uM pre-treated for 2 hrs before sRANKL stimulation measured 15 mins after sRANKL stimulation by Western blotting method; type: cell-based
Mus musculus [6] = species on record: Mus musculus; experiment: Inhibition of sRANKL-induced […] degradation in mouse RAW264 cells at 20 uM pre-treated for 2 hrs before sRANKL stimulation measured 15 mins after sRANKL stimulation by Western blotting method; type: cell-based
RAW264 [7] = experiment: Inhibition of sRANKL-induced osteoclastogenesis in mouse RAW264 cells assessed as reduction in TRAP-positive multinuclear osteoclasts formation at 20 uM incubated for 4 days by TRAP assay; type: functional, cell-based

- pIC50 [2]: 6.22
- pIC50 [3]: 5.70
SMILES: C[C@@]12CCC(=O)c3coc(c31)C(=O)c1cc3c(cc12)C(=O)C=CC3=O [HELENAQUINONE]
- inhibition (RAW264 [1]): Active
- inhibition (Mus musculus [4]): Active
- inhibition (Mus musculus [5]): Active
- inhibition (Mus musculus [6]): Active
- inhibition (RAW264 [7]): Active
